Laboratory results published in US5977088A (priority 1995, dated 1999).
Entries after “also recorded” stand apart in the source; their conditions may differ. Where a name gives a salt, the structure may show the parent alone. Read-outs that look alike come from different tables or passages of the source.

Experiments:
[1] = human, in vivo
[2] = Topical treatment of back pain in a patient with kyphosis; conditions: applied to back in hyaluronic acid
[3] = test system: Fisher Bladder Carcinoma tumor tissue; assay: Intratumour injection study, radioactivity in tumor tissue; format: in vivo, Fisher 344 rat; conditions: intratumor injection; 1 h, 6 h
Protocol: Animal: Fisher 344 rat, male 200-250g b. […] These drugs were administrated by intratumor injection. […] At the same time, injection into normal skin (on the left frank) was carried out similarly.

[4] = Intravenous injection, radioactivity in liver; format: in vivo, Fisher 344 rat; set-up: unit not given beside the values; conditions: mean ± S.E.
[5] = Intratumour injection study, radioactivity in normal skin; format: in vivo, Fisher 344 rat; conditions: injection into normal skin; 1 h, 6 h
Protocol: Animal: Fisher 344 rat, male 200-250g At the same time, injection into normal skin (left frank) was carried out similarly. […] At the same time, injection into normal skin (on the left frank) was carried out similarly.

[6] = test system: Fisher Bladder Carcinoma tumor tissue; assay: Intravenous injection, radioactivity in tumor tissue; conditions: mean ± S.E., FIG. 5 plots CPM
Protocol: (§1) Tumor (2 mm viable tumor fragment) was transplanted subcutaneously on the right frank by trocar
(§2) Treatment was started when tumor size is about 1.5 cm.(2 weeks after implantation.) . . . tumor weight: 1.0+0.3 g
(§3) The drug was administered Intravenously (through the penile vein)
(§4) Group A: 5-FU 20 mg/kg (3H-5-FU30 μCi)+saline
(§5) Tumor was surgically removed (and blood was collected) at *predeterminated time after drug administration. Tumor weight was measured (and blood was centrifuged to obtain a plasma sample.)
(§6) *15 min, 60 min, 3 hr, 4 hrs, . . . after drug administration . . . .
(§7) Radioactivity level in tumor tissue was counted, using a liquid scintillation counter.

[7] = Chronic conditions - evaluations of patients treated with […] hyaluronic acid with 3% diclofenac acid (HD); format: in vivo, human (patients); conditions: single patient
[8] = Toxicity of indomethacin solubilized in n-methyl glucamine with hyaluronic acid in animals; format: in vivo
Protocol: As a major amount of soluble indomethacin may be incorporated into the formulation, or composition, the indomethacin may be solubilized using n-methyl glucamine at a dilution of 5 mg/ml of n-methyl glucamine (NMG). This substance is then passed through a […] Milipore filter to produce sterility. […] The solution of indomethacin and NMG may be mixed with, for example, "LifeCore™" hyaluronic acid in dosage amounts discussed above. This produces an appropriate mixture and can be administered safely.

psoriasis = assay: Topical treatment of a patient with psoriasis; format: in vivo, human (patient); conditions: carried in hyaluronic acid
Protocol: In another patient, a drug (methotrexate) was carried in hyaluronic acid and applied topically to a patient with psoriasis.

[9] = test system: Fisher Bladder Carcinoma tumor tissue; conditions: rat, in vivo, iv
Protocol: as §1, §2, §3, §4, §5, §6, §7

[10] = monkey, in vivo; cited from earlier work

With `O=C(c1ccccc1)c1ccc2n1CCC2C(=O)O` (racemic) [Toradol™, (+/-) tromethamine salt of ketorolac] the Side effects [1] was “there were no side effects” and the Back pain [2] was “the back pain eased and disappeared for some time”.

In the case of `O=c1[nH]cc(F)c(=O)[nH]1` [Formulation 5-FU, 5-Fluoracil], the “Radioactivity retention in tumor tissue (in words)” value [3] is reported as “radioactivity immediately disappeared from the tumor or the normal tissue”, the Radioactivity in liver ([4]; 15 min after i.v.) is reported as 18680 ± 625 and the Radioactivity in liver ([4]; 60 min after i.v.) is reported as 5451 ± 841. The Radioactivity in liver ([4]; 3 hrs after i.v.) was 2230 ± 449, the Radioactivity in liver ([4]; 5 hrs after i.v.) was 1129 ± 70 and the “Radioactivity clearance in normal tissue (skin) (in words)” value [5] was “radioactivity immediately disappeared from the tumor or the normal tissue”. For the same compound, the Radioactivity in tumor ([6]; 15 min after i.v.) was 2810 ± 165, the Radioactivity in tumor ([6]; 60 min after i.v.) was 1751 ± 149 and the Radioactivity in tumor ([6]; 3 hrs after i.v.) was 1493 ± 227. The Radioactivity in tumor ([6]; 5 hrs after i.v.) was 853 ± 129.

In the case of `O=C(OCC(O)CO)c1ccccc1Nc1ccnc2c(C(F)(F)F)cccc12` (centres unmarked) [Idarac], the “Comments on outcome (in words)” value [7] is reported as “poor response”.

For `COc1ccc2c(c1)c(CC(=O)O)c(C)n2C(=O)c1ccc(Cl)cc1` [indomethacin], the Side effects [2] was “some side effects” and the “Multiple of the therapeutic dose that is non-toxic in animals” value [8] was 16 fold.

In the case of `CN(Cc1cnc2nc(N)nc(N)c2n1)c1ccc(C(=O)N[C@@H](CCC(=O)O)C(=O)O)cc1` [methotrexate], the Response of psoriasis (psoriasis) is reported as “the psoriasis cleared”.

With `COc1ccc2cc([C@H](C)C(=O)O)ccc2c1` [naproxen] the Side effects [2] was “some side effects”.

For `CN1C(C(=O)Nc2ccccn2)=C(O)c2ccccc2S1(=O)=O` [piroxicam], the “Comments on outcome (in words)” value [7] was “nega-; also recorded: poor relief”.

With hyaluronic acid the “Radioactivity in tumor tissue (in words)” value [9] was “can enhance 5-FU uptake in tumor tissue”.

In the case of sodium hyaluronate, the “Cellular infiltration of the vitreous and anterior chamber, flare, haze, pathological changes” value [10] is given as “no significant cellular infiltration of the vitreous and anterior chamber, no flare in the aqueous humour, no haze or flare in the vitreous, and no pathological changes”.
